Laboratory results published in article PMC3846386 (Journal of medicinal chemistry, 2013).
Values belong to the compound of their own block, whether it stands above or below them.

Columns and labels:
[1] = CellTiter-Glo luminescent cell viability assay; type: cell-based
[2] = biological target: T1, L3MBTL1 (Homo sapiens, UniProt Q9Y468); test: Isothermal titration calorimetry; type: binding; details: in words
T1 sequence (Q9Y468 1-772 isoform Q9Y468-1): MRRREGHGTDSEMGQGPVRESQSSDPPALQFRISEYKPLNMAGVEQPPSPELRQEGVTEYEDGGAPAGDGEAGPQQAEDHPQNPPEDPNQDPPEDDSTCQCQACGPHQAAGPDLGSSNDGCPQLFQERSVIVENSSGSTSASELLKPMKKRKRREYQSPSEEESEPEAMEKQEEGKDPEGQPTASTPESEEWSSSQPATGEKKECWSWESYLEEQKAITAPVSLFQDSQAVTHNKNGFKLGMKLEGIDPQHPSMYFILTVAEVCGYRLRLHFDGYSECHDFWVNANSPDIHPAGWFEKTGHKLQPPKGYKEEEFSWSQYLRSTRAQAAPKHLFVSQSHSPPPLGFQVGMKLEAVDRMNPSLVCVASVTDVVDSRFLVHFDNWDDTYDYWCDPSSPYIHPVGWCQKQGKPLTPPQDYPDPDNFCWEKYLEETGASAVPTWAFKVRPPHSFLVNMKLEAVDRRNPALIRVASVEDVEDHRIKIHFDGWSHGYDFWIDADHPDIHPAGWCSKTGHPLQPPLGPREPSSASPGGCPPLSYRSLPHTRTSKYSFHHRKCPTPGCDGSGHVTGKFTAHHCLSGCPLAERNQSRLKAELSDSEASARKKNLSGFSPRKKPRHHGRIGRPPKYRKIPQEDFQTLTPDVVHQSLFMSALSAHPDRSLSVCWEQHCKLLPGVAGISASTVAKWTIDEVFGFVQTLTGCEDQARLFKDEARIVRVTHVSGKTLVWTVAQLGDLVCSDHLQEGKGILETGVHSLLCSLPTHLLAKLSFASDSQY

[3] = test system: GFP fusion protein containing the three MBT domains of L3MBTL3 (GFP-3MBT); details: read-out: EC50, effect on subnuclear localization of GFP-3MBT; cells; cited from earlier work
[4] = biological target: T2, GFP-FLMBT (GFP fusion of full-length L3MBTL3) (Homo sapiens, UniProt Q96JM7); test: Displacement of mero76-1 from GFP-FLMBT in HEK293 cells; type: cell-based
T2 sequence (Q96JM7 1-780): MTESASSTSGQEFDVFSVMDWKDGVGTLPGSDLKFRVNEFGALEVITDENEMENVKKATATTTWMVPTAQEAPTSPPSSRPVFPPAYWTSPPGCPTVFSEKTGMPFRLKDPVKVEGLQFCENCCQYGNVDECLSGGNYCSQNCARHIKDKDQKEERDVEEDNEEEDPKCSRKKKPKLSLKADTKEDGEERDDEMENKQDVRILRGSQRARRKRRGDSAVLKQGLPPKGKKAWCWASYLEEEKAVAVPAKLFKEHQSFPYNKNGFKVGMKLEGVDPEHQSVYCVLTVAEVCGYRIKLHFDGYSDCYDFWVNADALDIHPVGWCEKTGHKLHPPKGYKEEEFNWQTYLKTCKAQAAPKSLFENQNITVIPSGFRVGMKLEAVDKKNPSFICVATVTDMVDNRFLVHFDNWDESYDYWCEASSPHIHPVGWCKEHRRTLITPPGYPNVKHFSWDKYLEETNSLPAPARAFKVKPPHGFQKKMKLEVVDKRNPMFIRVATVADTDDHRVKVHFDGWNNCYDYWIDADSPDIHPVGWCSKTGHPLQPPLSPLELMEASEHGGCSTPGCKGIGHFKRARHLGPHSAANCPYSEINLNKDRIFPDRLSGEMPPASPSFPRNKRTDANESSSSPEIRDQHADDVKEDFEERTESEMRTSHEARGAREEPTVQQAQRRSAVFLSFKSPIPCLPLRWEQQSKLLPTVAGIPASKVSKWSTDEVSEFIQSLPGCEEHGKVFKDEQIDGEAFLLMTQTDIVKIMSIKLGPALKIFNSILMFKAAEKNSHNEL

[5] = biological target: T3, endogenous L3MBTL3 (Homo sapiens, UniProt Q96JM7); test: Biotin-1 pull-down; type: binding; details: G-401 cell lysates, Western analysis
T3 sequence (Q96JM7 1-780): T2 sequence (Q96JM7 1-780)

[6] = biological target: T4, L3MBTL3 (Homo sapiens, UniProt Q96JM7); test: AlphaScreen competition assay; details: in words
T4 sequence (Q96JM7 1-780): T2 sequence (Q96JM7 1-780)

[7] = test system: L3MBTL1 L361F

Structure (SMILES): CCN1Cc2ccc(NC(=O)c3ccc(C(=O)N4CCC(C5CCCN5)CC4)cc3)cc2C1 (centres unmarked) [Compound 2]
cytotoxicity, no observable level up to [1]: > 100 µM

affinity for L3MBTL1 by follow-up ITC [2]: micromolar affinity
Structure (SMILES): O=C(c1ccc(C(=O)N2CCC(N3CCCC3)CC2)c(NCc2ccccc2)c1)N1CCC(N2CCCC2)CC1 [Compound 49]

displacement of mero76-1 from GFP-L3MBTL3 ([4]; 1 equivalent relative to mero76-1): displace mero76-1 from GFP-L3MBTL3
competition with biotin-1 for binding to endogenous L3MBTL3 [5]: competed off with soluble 1
Structure (SMILES): O=C(c1ccc(C(=O)N2CCC(N3CCCC3)CC2)c(Nc2ccccc2)c1)N1CCC(N2CCCC2)CC1 [Compound 1]
cytotoxicity, no observable level up to [1]: > 100 µM
EC50 [3]: ~500 nM
displacement of mero76-1 from GFP-FLMBT ([4]; 1 or 5 equivalents relative to mero76-1 (both concentrations)): largely displaces mero76-1 from GFP-FLMBT

Structure (SMILES): O=C(c1ccc(C(=O)N2CCC(N3CCCC3)CC2)cc1)N1CCC(N2CCCC2)CC1 [Compound 5]
cytotoxicity, no observable level up to [1]: > 100 µM

Structure (SMILES): O=C(c1cccc(Br)c1)N1CCC(N2CCCC2)CC1 [Compound 57]
binding to L3MBTL3 versus L3MBTL1 [6]: equally well
change in affinity for L3MBTL1 L361F relative to wildtype L3MBTL1 by ITC [7]: ≤ 2 fold

Structure (SMILES): O=C(c1ccc(C(=O)N2CCC(N3CCCCC3)CC2)cc1)N1CCC(N2CCCCC2)CC1 [Compound 37]
competition with biotin-1 for binding to endogenous L3MBTL3 [5]: failed to compete for binding to endogenous L3MBTL3
